Experimental data published in US7323303B2, “Modified β-lactamases and uses thereof” (priority 2003, dated 2008).

Assays:
E166Cf enzyme [1] = molecular target: T1, E166Cf enzyme (Bacillus cereus, UniProt P00809, E185C); test: Circular dichroism assay of antibiotic hydrolysis by E166Cf; format: biochemical; conditions: 1.0×10^−4 M antibiotic, E166Cf 1.2×10^−7 M, one hour incubation
T1 construct: made in house; host or cells: B. subtilis 1A304 (φ105MU331); then labelled chemically
T1 sequence (P00809 28-306 E185C): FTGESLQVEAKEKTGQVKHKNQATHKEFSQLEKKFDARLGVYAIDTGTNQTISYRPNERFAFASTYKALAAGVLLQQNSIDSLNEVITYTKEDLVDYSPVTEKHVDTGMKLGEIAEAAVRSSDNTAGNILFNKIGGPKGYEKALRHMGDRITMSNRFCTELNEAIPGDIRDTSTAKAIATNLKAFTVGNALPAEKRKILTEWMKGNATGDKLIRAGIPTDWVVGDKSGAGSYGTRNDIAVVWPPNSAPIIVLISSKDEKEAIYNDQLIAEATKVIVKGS
Excerpt: The absence of a declining fluorescence signal for cefuroxime, cefoxitin and moxalactam can be ascribed to the poor hydrolytic activities of the E166Cf enzyme towards these antibiotics (very low k2 and/or k3) (FIG. 14). As a result, the cephalosporin substrates stay in the active sites. To verify this, the activities of the labeled enzyme with cefuroxime, cefoxitin and moxalactam as substrates were monitored by circular dichroism (CD) spectropolarimetry. […] Therefore, by measuring the CD signals of cefuroxime, cefoxitin and moxalactam (1.0×10^−4 M) at 258, 264 and 265 nm respectively as a function of time in the presence of E166Cf enzyme (1.2×10^−7 M), the hydrolytic activities of the labeled enzyme towards these antibiotics can be monitored.

[2] = molecular target: T2, E. coli TEM-1 β-lactamase (Escherichia coli, UniProt P62593); test: Drug screening: E166Cf fluorescence in presence of bacterial β-lactamase culture; format: biochemical; parameters: key: −: Decline in fluorescence signal (presence of beta-lactam hydrolysis); +: No decline in fluorescence signal (absence of beta-lactam hydrolysis); conditions: E. coli TEM-1 culture, undiluted; antibiotic 1.0×10^−4 M; E166Cf 1.2×10^−7 M
T2 construct: made in house; host or cells: E. coli BL21(DE3); whole overnight culture used undiluted, not purified
T2 sequence (P62593 24-286 limits assumed): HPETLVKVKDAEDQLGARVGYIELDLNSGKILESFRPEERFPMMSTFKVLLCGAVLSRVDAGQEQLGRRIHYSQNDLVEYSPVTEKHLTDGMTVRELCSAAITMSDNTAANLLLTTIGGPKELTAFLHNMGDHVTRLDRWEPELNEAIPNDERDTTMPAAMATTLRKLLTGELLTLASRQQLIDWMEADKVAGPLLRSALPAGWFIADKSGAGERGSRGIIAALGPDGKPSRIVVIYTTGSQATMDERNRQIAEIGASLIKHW
Protocol: (§1) The use of the E166Cf enzyme in screening bacterial β-lactamases against various β-lactam antibiotics was investigated. The principle of our method is that when both E166Cf and bacterial β-lactamase are incubated with ‘β-lactamase-unstable’ antibiotics, the fluorescence of the E166Cf enzyme will be suppressed because of the greater catalytic efficiency of the bacterial enzyme. In contrast, when bacterial β-lactamases are screened against ‘β-lactamase-resistant’ antibiotics, the fluorescence of the E166Cf enzyme will be enhanced because of the poor hydrolytic activity of the bacterial enzyme. Thus, any β-lactam antibiotic that causes the labeled enzyme to increase its fluorescence intensity in the presence of bacterial β-lactamases can be used in clinical treatments.
The TEM-1 β-lactamase was expressed in E. coli. BL21(DE3). Preparation of the TEM-1 β-lactamase was performed as follows. A bacterial strain was streaked on an agar plate containing 100 μg/ml ampicillin, and the plate was incubated at 37° C. for 24 h. A single bacterial colony from the plate was inoculated into 100 ml of sterilized LB broth (28 g/l) which was then incubated at 37° C. with shaking at 280 rpm overnight. After overnight incubation, the bacterial culture was harvested and stored at −20° C.
(§2) Fluorescence measurements of the E166Cf enzyme in the presence of bacterial cultures and β-lactam antibiotics were performed on a FLUOstar microplate reader (BMG Labtechnologies) equipped with two sample injectors. Excitation and emission filters of 485 and 520 nm respectively were used. For B. cereus penPC β-lactamase, B. licheniformis penP β-lactamase and B. cereus β-lactamase II, the labeled enzymes were mixed with the bacterial cultures, and the mixtures were made up to 300 μl with 50 mM phosphate buffer (pH 7.0) in a 96-well microtiter plate (Corning Costar). For the purpose of comparison, B. subtilis cultures, which produced no β-lactamase, were set up as negative controls. For E. coli. TEM-1 β-lactamase, the labeled enzymes were mixed with the bacterial cultures without dilution. E. coli. cultures, which produced no β-lactamase, were set up as negative controls for comparison. The antibiotics were then added to the bacterial samples by the injectors.
(§3) The results from the time-resolved fluorescence measurements of the labeled enzyme (1.2×10^−7 M) in the presence of various bacterial cultures and β-lactam antibiotics (1.0×10^−4 M) are shown in FIGS. 23 to 26.

[3] = molecular target: T3, B. cereus penPC β-lactamase (Bacillus cereus, UniProt P00809); test: as above; format: biochemical; parameters: key: −: Decline in fluorescence signal (presence of beta-lactam hydrolysis); +: No decline in fluorescence signal (absence of beta-lactam hydrolysis); conditions: antibiotic 1.0×10^−4 M, E166Cf 1.2×10^−7 M
T3 construct: made in house; host or cells: B. subtilis 1A304 (φ105MU331); whole culture used, not purified
T3 sequence (P00809 28-306): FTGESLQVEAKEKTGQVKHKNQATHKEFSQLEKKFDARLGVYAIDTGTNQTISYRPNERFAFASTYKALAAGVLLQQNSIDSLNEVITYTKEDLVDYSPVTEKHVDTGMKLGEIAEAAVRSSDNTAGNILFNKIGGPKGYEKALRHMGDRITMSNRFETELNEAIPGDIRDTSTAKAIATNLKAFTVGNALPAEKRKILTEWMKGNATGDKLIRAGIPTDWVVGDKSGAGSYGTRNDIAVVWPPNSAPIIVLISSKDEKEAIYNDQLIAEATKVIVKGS
Protocol: as §1
(§4) The β-lactamase II, penPC β-lactamase and penP β-lactamase were expressed in B. subtilis 1A304 (φ105MU331). These enzymes were prepared according to the procedures described previously (Reference 7: Thomwell, S. J. East, A. K., Errington, J. An efficient expression and secretion system based on Bacillus subtilis phage phi 105 and its uses for the production for B. cereus β-lactamase I. (1993) Gene 133, 47-53) with slight modifications. A bacterial strain was streaked on an agar plate containing 5 μg/ml chloramphenicol, and the plate was incubated at 37° C. for 24 h. A single bacterial colony from the agar plate was inoculated into 100 ml of sterilized BHY medium (37 g/l brain heart infusion and 5 g/l yeast extract) which was then incubated at 37° C. with shaking at 300 rpm overnight. About 7 ml of overnight inoculum was added to a baffled conical flask containing 100 ml of sterilized BHY medium. The inoculated medium was incubated at 37° C. with shaking at 300 rpm. When the optical density of the bacterial culture at 600 nm reached 3.5 to 4.0, the bacterial culture was heated in a water bath at 51° C. for 5 min. Afterwards, the bacterial culture was incubated at 37° C. with shaking at 300 rpm for a further 6 h. The bacterial culture was then harvested and stored at −20° C.
as §2, §3

[4] = molecular target: T4, B. licheniformis penP β-lactamase (Bacillus licheniformis, UniProt P00808); test: as above; format: biochemical; parameters: key: −: Decline in fluorescence signal (presence of beta-lactam hydrolysis); +: No decline in fluorescence signal (absence of beta-lactam hydrolysis); conditions: antibiotic 1.0×10^−4 M, E166Cf 1.2×10^−7 M
T4 construct: made in house; host or cells: B. subtilis 1A304 (φ105MU331); whole culture used, not purified
T4 sequence (P00808 27-307): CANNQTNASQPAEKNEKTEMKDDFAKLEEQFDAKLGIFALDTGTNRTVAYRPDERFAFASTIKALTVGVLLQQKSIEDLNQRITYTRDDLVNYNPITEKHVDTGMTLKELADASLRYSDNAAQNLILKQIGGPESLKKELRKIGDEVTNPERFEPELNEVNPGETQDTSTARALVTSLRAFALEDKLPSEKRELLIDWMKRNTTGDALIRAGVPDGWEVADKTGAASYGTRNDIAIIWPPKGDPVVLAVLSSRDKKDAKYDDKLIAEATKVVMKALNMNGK
Protocol: as §1, §4, §2, §3

B. cereus β-lactamase II = molecular target: T5, B. cereus β-lactamase II (Bacillus cereus, UniProt P04190); test: as above; format: biochemical; parameters: key: −: Decline in fluorescence signal (presence of beta-lactam hydrolysis); +: No decline in fluorescence signal (absence of beta-lactam hydrolysis); conditions: antibiotic 1.0×10^−4 M, E166Cf 1.2×10^−7 M
T5 construct: made in house; host or cells: B. subtilis 1A304 (φ105MU331); whole culture used, not purified
T5 sequence (P04190 31-257): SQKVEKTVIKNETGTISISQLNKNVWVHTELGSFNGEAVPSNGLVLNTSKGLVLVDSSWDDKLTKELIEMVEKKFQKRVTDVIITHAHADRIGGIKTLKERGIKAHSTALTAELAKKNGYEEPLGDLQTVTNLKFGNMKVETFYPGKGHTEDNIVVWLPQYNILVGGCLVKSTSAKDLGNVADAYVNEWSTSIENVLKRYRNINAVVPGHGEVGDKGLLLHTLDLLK
Protocol: as §1, §4, §2, §3

E166Cf enzyme [5] = molecular target: T1, E166Cf enzyme; test: Time-resolved fluorescence of E166Cf enzyme with penicillins and cephalosporins; format: biochemical; conditions: E166Cf 1.2×10^−7 M, 50 mM phosphate buffer pH 7.0; up to one hour
Protocol: Fluorescence measurements of the E166Cf enzyme in the presence of penicillin G, penicillin V, ampicillin, cefuroxime, cefoxitin and moxalactam were performed on a Perkin Elmer LS50B spectrofluorometer. For time-resolved fluorescence measurement, excitation and emission wavelengths were set at 494 and 515 nm respectively. Both excitation and emission slit widths were set at 5 nm. All fluorescence measurements were performed at room temperature.
With penicillin G as substrate, the fluorescence signal of the E166Cf enzyme (1.2×10^−7 M) at 515 nm in 50 mM phosphate buffer (pH 7.0) increases as a function of the antibiotic concentration (FIG. 4). The time-resolved fluorescence signals of the E166Cf enzyme at 515 nm were also measured with various concentrations of penicillin G (FIG. 5). At low antibiotic concentration (1.0×10^−7 and 1.0×10^−6 M), the fluorescence intensity of the E166Cf enzyme increases gradually and then declines. At high antibiotic concentration (1.0×10^−5 and 1.0×10^−4 M), the fluorescence signal increases instantaneously and levels off to a plateau. The fluorescence signal stays at the plateau for a certain length of time and then declines afterwards. Similar results were obtained with penicillin V and ampicillin (FIGS. 6 and 7).
With cefuroxime, cefoxitin and moxalactam as substrates, the fluorescence intensities of the E166Cf enzyme (1.2×10^−7 M) at 515 nm in 50 mM phosphate buffer (pH 7.0) also increase as a function of antibiotic concentration (FIGS. 8 to 10).
(§5) At high substrate concentration (1.0×10^−5 and 1.0×10^−4 M), the penicillin substrates rapidly occupy the active sites to form the ES complexes, thus switching on the fluorescence of the fluorescein labels instantaneously. […] This can be verified by the fact that the ‘plateau time’ (8 and 22 min for 1.0×10^−5 and 1.0×10^−4 M penicillin G respectively) is consistent with the ‘substrate hydrolysis time’ determined by spectrophotometric assays (7 and 20 min for 1.0×10^−5 and 1.0×10^−4 M penicillin G respectively). When most of the penicillin substrates have been hydrolyzed to carboxylic acids, the fluorescence signal of the labeled enzyme will decline subsequently.

wild-type β-lactamase I = molecular target: T6, wild-type β-lactamase I (Bacillus cereus, UniProt P00809); test: Spectrophotometric substrate hydrolysis, steady-state kinetics; format: biochemical; conditions: 50 mM potassium phosphate buffer pH 7.0, 20° C.
T6 construct: made in house; host or cells: B. subtilis 1A304 (φ105MU331)
T6 sequence (P00809 28-306): as the sequence (P00809 28-306) above
Protocol: (§6) The hydrolytic activities of the wild-type β-lactamase I, E166C and E166Cf mutants towards penicillin G, penicillin V and ampicillin (Sigma) were monitored by the spectrophotometric method. The spectrophotometric measurements were performed on a Perkin Elmer Lambda Bio20 UV/Vis spectrometer. Substrate hydrolysis was monitored at a fixed wavelength: 235 nm for ampicillin, 232 nm for penicillin G and penicillin V. The initial rate of substrate hydrolysis occurring within 5 min was determined in duplicate at each of 6 different substrate concentrations in 50 mM potassium phosphate buffer (pH 7.0) at 20° C. The initial rates determined were then treated as described in Reference 5 to calculate the Michaelis constants (Km) and turnover numbers (kcat) using non-linear regression analysis (equation 1):
(§7) [formula] where v is the initial rate of substrate hydrolysis, Vmax the maximum rate of reaction, [S] the initial substrate concentration, Km the Michaelis constant and kcat=Vmax/[Enzyme].
(§8) The measured steady-state kinetic parameters for hydrolysis of penicillin G, penicillin V and ampicillin by the wild-type β-lactamase I, E166C and E166Cf mutants are summarized in Table 1.

[6] = molecular target: T7, E166C mutant of β-lactamase I (Bacillus cereus, UniProt P00809, E185C); test: as above; format: biochemical; conditions: 50 mM potassium phosphate buffer pH 7.0, 20° C.
T7 construct: made in house; host or cells: B. subtilis 1A304 (φ105MU331)
T7 sequence (P00809 28-306 E185C): T1 sequence (P00809 28-306 E185C)
Protocol: as §6, §7, §8

[7] = molecular target: T8, E166Cf (fluorescein-labeled E166C mutant of β-lactamase I) (Bacillus cereus, UniProt P00809, E185C); test: as above; format: biochemical; conditions: E166Cf; 50 mM potassium phosphate buffer pH 7.0, 20° C.
T8 construct: made in house; host or cells: B. subtilis 1A304 (φ105MU331); then labelled chemically
T8 sequence (P00809 28-306 E185C): T1 sequence (P00809 28-306 E185C)
Protocol: as §6, §7, §8, §5

[8] = system: CC1(C)S[C@@H]2[C@H](NC(=O)[C@H](N)c3ccccc3)C(=O)N2[C@H]1C(=O)O; test: as above; format: biochemical, Bacillus cereus; conditions: other: Wild-type, 50 mM potassium phosphate buffer pH 7.0, 20° C.
Protocol: as §6, §7, §8

Compound	change in CD signal of antibiotic (hydrolysis by E166Cf) (E166Cf enzyme [1])	fluorescence signal of E166Cf (beta-lactam hydrolysis) [2]	fluorescence signal of E166Cf (beta-lactam hydrolysis) [3]	fluorescence signal of E166Cf (beta-lactam hydrolysis) [4]	fluorescence signal of E166Cf (beta-lactam hydrolysis) (B. cereus β-lactamase II)	time course of E166Cf fluorescence signal at 515 nm (E166Cf enzyme [5])	Km (wild-type β-lactamase I) [µM]	kcat (wild-type β-lactamase I) [s⁻¹]	Km [6] [µM]	kcat [6] [s⁻¹]	Km [7] [µM]	kcat [7] [s⁻¹]	Km [8] [µM]	kcat [8] [s⁻¹]	kcat/Km [8] [M⁻¹ s⁻¹]
CO[C@@]1(NC(=O)Cc2cccs2)C(=O)N2C(C(=O)O)=C(COC(N)=O)CS[C@@H]21 [Cefoxitin, cefoxitin]	no significant changes in the CD signals	+	+	+	+	no subsequent decline in intensity was observed									
CC1(C)S[C@@H]2[C@H](NC(=O)COc3ccccc3)C(=O)N2[C@H]1C(=O)O [Penicillin V, penicillin V]		−	−	−	−		52 ± 4	2109 ± 4	71 ± 6	1.53 ± 0.03	117 ± 10	2.97 ± 0.06			
wild-type β-lactamase I (Bacillus cereus)													142 ± 8	5210 ± 275	3.7e+07 ± 4e+06
CO[C@@]1(NC(=O)C(C(=O)O)c2ccc(O)cc2)C(=O)N2C(C(=O)O)=C(CSc3nnnn3C)CO[C@@H]21 (stereo partly shown) [Moxalactam, moxalactam]	no significant changes in the CD signals	+	+	+	+	no subsequent decline in intensity was observed									
CO/N=C(\C(=O)N[C@@H]1C(=O)N2C(C(=O)O)=C(COC(N)=O)CS[C@H]12)c1ccco1 [Cefuroxime, cefuroxime]	no significant changes in the CD signals	+	+	−	−	no subsequent decline in intensity was observed									
